# In patent US10512700B2, “Radiohalide-labeled targeted diagnostics and therapeutics” (Memorial Sloan Kettering Cancer Center, priority 2014, dated 2019):
# Tested on: U87 MG tumor bearing mice
# Experiment: Biodistribution
# Format: in vivo, mouse
# Settings: i.v.
# Description: Biodistribution experiments were conducted on female nude mice (8-10 weeks old and 20-25 g in weight, n=21) bearing U87 MG subcutaneous xenografts. The radiolabeled preparation (20-30 μCi of compound C-2d (^131I) in 200 μL of a solution 90% PBS 10% PEG300) was administrated via the lateral tail vein. To determine a suitable specific activity (to achieve a sufficiently high tumor to organ ratio), several specific activities were tested (5 mCi/μmol, 50 mCi/μmol, 250 mCi/μmol) in mice bearing U87 MG tumors. The compound was allowed to circulate for 2 h post injection at which time mice were sacrificed and organs were harvested (n=3). The radioactive content in tissue of interest (blood, tumor, muscle, bone, liver, spleen, kidney, heart, lung, pancreas, brain, skin, small intestine, large intestine, stomach, tail, thyroid and feces) was measured on a Wizard 2470 Automatic Gamma Counter, and the tissue-associated activity was calculated as the mean % ID/g using the following formula: [(activity in the target organ/grams of tissue)/injected dose]×100%.
# After determining the optimal specific activity (of the three tested), a suitable time window for imaging was determined by testing the compound distribution in nude mice bearing U87 MG tumors at different time points. The compound was allowed to circulate for various times (1, 2, and 6 h), after which the mice were sacrificed (n=3).
# [1] = 50 mCi/μmol, 2 h post injection
# [2] = 250 mCi/μmol, 2 h post injection
smiles,measurement,setting,value
O=C(c1ccc([131I])cc1)N1CCN(C(=O)c2cc(Cc3n[nH]c(=O)c4ccccc34)ccc2F)CC1 [C-2d (^131I)],"% ID/g, Blood","5 mCi/μmol, 2 h post injection",5.88 % ID/g
same,"% ID/g, Bone","5 mCi/μmol, 2 h post injection",0.14 % ID/g
same,"% ID/g, Brain","5 mCi/μmol, 2 h post injection",0.02 % ID/g
same,"% ID/g, Feces","5 mCi/μmol, 2 h post injection",6.23 % ID/g
same,"% ID/g, Heart","5 mCi/μmol, 2 h post injection",0.26 % ID/g
same,"% ID/g, Kidneys","5 mCi/μmol, 2 h post injection",1.08 % ID/g
same,"% ID/g, Large intestine","5 mCi/μmol, 2 h post injection",5.43 % ID/g
same,"% ID/g, Liver","5 mCi/μmol, 2 h post injection",3.14 % ID/g
same,"% ID/g, Lung","5 mCi/μmol, 2 h post injection",0.55 % ID/g
same,"% ID/g, Muscle","5 mCi/μmol, 2 h post injection",0.27 % ID/g
same,"% ID/g, Pancreas","5 mCi/μmol, 2 h post injection",0.67 % ID/g
same,"% ID/g, Skin","5 mCi/μmol, 2 h post injection",0.26 % ID/g
same,"% ID/g, Small intestine","5 mCi/μmol, 2 h post injection",14.16 % ID/g
same,"% ID/g, Spleen","5 mCi/μmol, 2 h post injection",0.60 % ID/g
same,"% ID/g, Stomach","5 mCi/μmol, 2 h post injection",5.86 % ID/g
same,"% ID/g, Tail","5 mCi/μmol, 2 h post injection",2.31 % ID/g
same,"% ID/g, Thyroid","5 mCi/μmol, 2 h post injection",0.37 % ID/g
same,"% ID/g, Tumor","5 mCi/μmol, 2 h post injection",0.32 % ID/g
same,"% ID/g, Blood",[1],0.90 % ID/g
same,"% ID/g, Bone",[1],0.04 % ID/g
same,"% ID/g, Brain",[1],0.007 % ID/g
same,"% ID/g, Feces",[1],3.75 % ID/g
same,"% ID/g, Heart",[1],0.10 % ID/g
same,"% ID/g, Kidneys",[1],0.35 % ID/g
same,"% ID/g, Large intestine",[1],0.94 % ID/g
same,"% ID/g, Liver",[1],1.02 % ID/g
same,"% ID/g, Lung",[1],0.28 % ID/g
same,"% ID/g, Muscle",[1],0.04 % ID/g
same,"% ID/g, Pancreas",[1],0.42 % ID/g
same,"% ID/g, Skin",[1],0.092 % ID/g
same,"% ID/g, Small intestine",[1],7.17 % ID/g
same,"% ID/g, Spleen",[1],0.15 % ID/g
same,"% ID/g, Stomach",[1],1.90 % ID/g
same,"% ID/g, Tail",[1],0.45 % ID/g
same,"% ID/g, Thyroid",[1],0.14 % ID/g
same,"% ID/g, Tumor",[1],0.17 % ID/g
same,"% ID/g, Blood",[2],4.78 % ID/g
same,"% ID/g, Bone",[2],0.09 % ID/g
same,"% ID/g, Brain",[2],0.06 % ID/g
same,"% ID/g, Feces",[2],67.25 % ID/g
same,"% ID/g, Heart",[2],0.16 % ID/g
same,"% ID/g, Kidneys",[2],0.58 % ID/g
same,"% ID/g, Large intestine",[2],17.29 % ID/g
same,"% ID/g, Liver",[2],2.17 % ID/g
same,"% ID/g, Lung",[2],0.43 % ID/g
same,"% ID/g, Muscle",[2],0.074 % ID/g
same,"% ID/g, Pancreas",[2],0.27 % ID/g
same,"% ID/g, Skin",[2],0.14 % ID/g
same,"% ID/g, Small intestine",[2],7.55 % ID/g
same,"% ID/g, Spleen",[2],0.43 % ID/g
same,"% ID/g, Stomach",[2],1.25 % ID/g
same,"% ID/g, Tail",[2],0.58 % ID/g
same,"% ID/g, Thyroid",[2],0.20 % ID/g
same,"% ID/g, Tumor",[2],0.18 % ID/g
same,"% ID/g, Blood",1 h post injection,2.76 % ID/g
